Here are results for 26 compounds from patent US8207155B2, “Sulfonyl-azetidin-3-yl-methylamine amide analogs as GlyTl inhibitors, methods for making same, and use of same in treating psychiatric disorders” (Vanderbilt University, priority 2009, dated 2012).

The target in the first experiment is T1, GlyT1 (Homo sapiens, UniProt P48067).
T1 construct: Human placental choriocarcinoma cells endogenously expressing GlyT1; endogenous in cells; host or cells: JAR human placental choriocarcinoma cells
T1 sequence (P48067 1-706): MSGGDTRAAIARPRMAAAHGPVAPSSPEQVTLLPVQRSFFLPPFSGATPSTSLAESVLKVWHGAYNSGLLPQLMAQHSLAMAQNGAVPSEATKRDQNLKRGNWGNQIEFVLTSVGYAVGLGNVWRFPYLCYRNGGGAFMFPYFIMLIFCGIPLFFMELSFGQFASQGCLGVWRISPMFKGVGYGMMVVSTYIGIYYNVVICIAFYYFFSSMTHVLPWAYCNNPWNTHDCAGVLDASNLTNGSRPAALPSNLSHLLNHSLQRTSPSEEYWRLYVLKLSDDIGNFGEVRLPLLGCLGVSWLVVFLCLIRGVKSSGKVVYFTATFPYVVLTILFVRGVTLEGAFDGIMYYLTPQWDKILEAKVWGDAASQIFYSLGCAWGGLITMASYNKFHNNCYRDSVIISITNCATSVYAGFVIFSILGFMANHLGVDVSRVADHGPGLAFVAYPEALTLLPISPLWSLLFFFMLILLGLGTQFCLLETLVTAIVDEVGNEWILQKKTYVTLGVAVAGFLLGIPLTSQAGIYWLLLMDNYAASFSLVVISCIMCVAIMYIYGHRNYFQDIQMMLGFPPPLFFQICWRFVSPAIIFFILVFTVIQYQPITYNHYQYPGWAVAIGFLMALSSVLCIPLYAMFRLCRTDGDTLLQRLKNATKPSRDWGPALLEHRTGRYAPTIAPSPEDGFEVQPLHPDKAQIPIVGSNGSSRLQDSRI
In words: GlyT1 [14C]-glycine uptake inhibition in human placental choriocarcinoma (JAR) cells. In kind it is cell-based. To be noted: inhibition of specific [14C]-glycine uptake; cells endogenously expressing GlyT1; value printed in pM; read-out: Potency (IC50). As for the experimental part:
Human placental choriocarcinoma cells endogenously expressing GlyT1 can be cultured using standard conditions. Cells can then be grown at 37° C. in a humidified atmosphere 40-48 hours before the assay. Culture medium can be removed from the culture plate, and cells can be incubated with an amount of TB1A buffer with or without the compounds of the present invention for a sufficient period of time. Then an amount of [^14C]-glycine diluted with TB1A can be added to each well. After incubation the microplates can be sealed and counted. Non-specific uptake of [^14C]-glycine can be determined in the presence of unlabeled glycine. To determine potencies, a range of concentrations of the compounds of the present invention can be added to the cells, followed by the fixed concentration of [^14C]-glycine. The concentration of the present compound that inhibited half of the specific uptake of [^14C]glycine (IC50 value) can be determined from the assay data by non-linear curve fitting.
In the case of `Cn1cnc(S(=O)(=O)N2CC(C(NC(=O)c3ccc(Cl)cc3Cl)c3ccccc3)C2)c1` (single isomer, unassigned) [Compound 3b-1, 2,4-dichloro-N-((1(1-methyl-1H-imidazol-4-ylsulfonyl)azetidin-3-yl)(phenyl)methyl)benzamide], the IC50 – broadly, the concentration at which inhibition is half-maximal – amounted to 29 pM.

The same experiment, now with this note: inhibition of specific [14C]-glycine uptake; cells endogenously expressing GlyT1; values given in μM; read-out: Potency (IC50).
In the case of `Cn1cnc(S(=O)(=O)N2CC(C(NC(=O)c3ccc(F)cc3)c3ccccc3)C2)c1` (centres unmarked) [Compound 9d], the IC50 is more than 1e+07 pM.

For the compound `Cn1cnc(S(=O)(=O)N2CC(C(NC(=O)c3ccccc3F)c3ccccc3)C2)c1` (centres unmarked) [Compound 9e], the IC50 came out at 1.1e+06 pM.

On to `CCCS(=O)(=O)N1CC(C(NC(=O)c2ccc(Cl)cc2Cl)c2ccccc2)C1` (single isomer, unassigned) [Compound 3a-1, 2,4-dichloro-N-(phenyl(1-(propylsulfonyl)azetidin-3-yl)methyl)benzamide], for which the IC50 is more than 1e+07 pM.

For `Cn1cnc(S(=O)(=O)N2CC(C(NC(=O)c3ccc(Cl)cc3Cl)C3CCCC3)C2)c1` (centres unmarked) [Compound 10e], the IC50 stood at 1.6e+06 pM.

As to `Cn1cnc(S(=O)(=O)N2CC(C(NC(=O)c3ccc(F)c(F)c3)c3ccccc3)C2)c1` (centres unmarked) [Compound 9i], the IC50 worked out at 1e+06 pM.

For the compound `Cn1cnc(S(=O)(=O)N2CC(C(NC(=O)c3cc(Cl)cc(Cl)c3)c3ccccc3)C2)c1` (centres unmarked) [Compound 9j], the IC50 stood at 1.5e+06 pM.

Staying with this experiment, now noted: inhibition of specific [14C]-glycine uptake; cells endogenously expressing GlyT1; values in nM; read-out: Potency (IC50).
`Cn1cnc(S(=O)(=O)N2CC(C(NC(=O)c3ccccc3Cl)c3ccccc3)C2)c1` (centres unmarked) [Compound 9a]: the IC50 amounted to 133000 pM.

In the case of `Cn1cnc(S(=O)(=O)N2CC(C(NC(=O)c3ccc(Cl)cc3Cl)c3cccs3)C2)c1` (centres unmarked) [Compound 10c], the IC50 was 40000 pM.

With `CCCC(NC(=O)c1ccc(Cl)cc1Cl)C1CN(S(=O)(=O)c2cn(C)cn2)C1` (centres unmarked) [Compound 10b], the IC50 was found to be 185000 pM.

`Cn1cnc(S(=O)(=O)N2CC(C(NC(=O)c3ccc(Cl)cc3)c3ccccc3)C2)c1` (centres unmarked) [Compound 9b]: the IC50 was 334000 pM.

With `Cn1cnc(S(=O)(=O)N2CC(C(NC(=O)c3ccccc3C(F)(F)F)c3ccccc3)C2)c1` (centres unmarked) [Compound 9g], the IC50 stood at 101000 pM.

For the compound `Cn1cnc(S(=O)(=O)N2CC(C(NC(=O)c3ccc(F)cc3F)c3ccccc3)C2)c1` (centres unmarked) [Compound 9h], the IC50 came to 454000 pM.

Turning to `Cn1cnc(S(=O)(=O)N2CC(C(NC(=O)c3ccc(Cl)cc3Cl)c3ccccc3)C2)c1` (centres unmarked) [Compound 3b, 2,4-dichloro-N-((1(1-methyl-1H-imidazol-4-ylsulfonyl)azetidin-3-yl)(phenyl)methyl)benzamide], the IC50 is 39000 pM.

`CC(C)CC(NC(=O)c1ccc(Cl)cc1Cl)C1CN(S(=O)(=O)c2cn(C)cn2)C1` (centres unmarked) [Compound 10f]: the 50% inhibitory concentration (IC50) came to 581000 pM.

`Cn1cnc(S(=O)(=O)N2CC(C(NC(=O)c3ccc(Cl)cc3)c3ccccn3)C2)c1` (centres unmarked) [Compound 10i]: the IC50 came out at 940000 pM.

`Cn1cnc(S(=O)(=O)N2CC(C(NC(=O)c3ccccc3Cl)c3ccccn3)C2)c1` (centres unmarked) [Compound 10g]: the IC50 worked out at 356000 pM.

Regarding `CCCS(=O)(=O)N1CC(C(NC(=O)c2ccc(Cl)cc2Cl)c2ccccc2)C1` (centres unmarked) [Compound 3a, 2,4-dichloro-N-(phenyl(1-(propylsulfonyl)azetidin-3-yl)methyl)benzamide], the IC50 came out at 730000 pM.

Take `Cn1cnc(S(=O)(=O)N2CC(C(NC(=O)c3ccc(Cl)cc3Cl)c3ccccc3)C2)c1` (single isomer, unassigned) [Compound 3b-2, 2,4-dichloro-N-((1(1-methyl-1H-imidazol-4-ylsulfonyl)azetidin-3-yl)(phenyl)methyl)benzamide]: the IC50 turned out to be 627000 pM.

Turning to `CC(C)C(NC(=O)c1ccc(Cl)cc1Cl)C1CN(S(=O)(=O)c2cn(C)cn2)C1` (centres unmarked) [Compound 10a], the IC50 stood at 394000 pM.

`Cn1cnc(S(=O)(=O)N2CC(C(NC(=O)c3ccc(Cl)cc3Cl)C3CC3)C2)c1` (centres unmarked) [Compound 10d]: the IC50 turned out to be 253000 pM.

Regarding `Cn1cnc(S(=O)(=O)N2CC(C(NC(=O)c3ccc(Cl)c(Cl)c3)c3ccccc3)C2)c1` (centres unmarked) [Compound 9c], the IC50 is 446000 pM.

Consider `CCCS(=O)(=O)N1CC(C(NC(=O)c2ccc(Cl)cc2Cl)c2ccccc2)C1` (single isomer, unassigned) [Compound 3a-2, 2,4-dichloro-N-(phenyl(1-(propylsulfonyl)azetidin-3-yl)methyl)benzamide], for which the IC50 amounted to 627000 pM.

`Cn1cnc(S(=O)(=O)N2CC(C(NC(=O)c3ccccc3C(F)(F)F)c3ccccn3)C2)c1` (centres unmarked) [Compound 10h]: the IC50 is 256000 pM.

On to `Cn1cnc(S(=O)(=O)N2CC(C(NC(=O)c3cccnc3Cl)c3ccccc3)C2)c1` (centres unmarked) [Compound 9k], for which the IC50 was 718000 pM.

On to `Cn1cnc(S(=O)(=O)N2CC(C(NC(=O)c3c(F)cccc3F)c3ccccc3)C2)c1` (centres unmarked) [Compound 9f], for which the concentration for half-maximal inhibition (IC50) amounted to 439000 pM.
